The target of one assay is T1, CCKB receptor (Mus musculus, UniProt P56481).
T1 construct: The cortex was dissected, weighed and homogenised in 40ml ice-cold buffer; tissue Charles River (supplier of the CD1 mice); host or cells: cerebral cortex membranes of male CD1 mice
T1 sequence (P56481 1-453): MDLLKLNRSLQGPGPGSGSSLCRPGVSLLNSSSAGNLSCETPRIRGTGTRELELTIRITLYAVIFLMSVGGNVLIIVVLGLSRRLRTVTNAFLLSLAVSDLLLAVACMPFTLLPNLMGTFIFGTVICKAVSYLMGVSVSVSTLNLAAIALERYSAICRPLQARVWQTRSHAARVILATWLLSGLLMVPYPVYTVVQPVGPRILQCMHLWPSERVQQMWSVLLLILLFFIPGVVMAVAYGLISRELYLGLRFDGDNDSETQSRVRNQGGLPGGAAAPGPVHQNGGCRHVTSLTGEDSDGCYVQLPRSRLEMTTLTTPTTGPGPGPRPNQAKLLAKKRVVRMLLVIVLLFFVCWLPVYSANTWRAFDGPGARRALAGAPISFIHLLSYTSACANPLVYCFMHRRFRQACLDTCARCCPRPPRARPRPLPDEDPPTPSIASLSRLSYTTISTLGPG
Kind of assay: CCKB receptor radioligand binding assay in mouse cortical membranes ([125I]-CCK8S). Particulars: [125I]-CCK8S 200 pM, 150 min at 21±3°; for Ki: read-out: CCKB pKi (converted). How it is done:
The compounds of the examples were tested for binding at the CCKB receptor in mouse cortical membranes by means of a radioligand binding assay. The procedure was as follows:
The whole brains from male mice (CD1 22-25 g; Charles River) were removed and placed in ice-cold buffer (pH7.2 @ 21±3°) of the following composition (mM); 10 HEPES, 130 NaCl, 4.7 KCl, 5 MgCl2, 1 EDTA and containing 0.25g.^-1 bacitracin. The cortex was dissected, weighed and homogenised in 40ml ice-cold buffer using a Teflon-in-glass homogeniser. The homogenate was centrifuged at 39,800g for 20 min at 4°, the supernatant discarded and the pellet resuspended by homogenisation in fresh buffer. The homogenate was recentrifuged (39,800 g; 20 min @ 4°) and the final pellet was resuspended in HEPES buffer to give a tissue concentration of 2 mg.ml^-1 (original wet weight).
The membranes ([…]) were incubated for 150 min at 21±3° in a final volume of 0.5 ml with HEPES buffer containing [^125 I]-CCK8S (0.05 ml; 200 pM NEN 2200 Ci.mmol^-1) and competing compound. Total and non-specific binding of [^125 I]-CCK8S were defined using 0.05 ml of buffer and 0.05 ml of […] L-365,260, respectively. The assay was terminated by rapid filtration through pre-soaked Whatman GF/B filters using a Brandell Cell harvester. The filters were washed (3×3 ml) with ice-cold 50 mM Tris-HCl (pH7.4 @ 4° C.) and bound radioactivity determined by counting (1 min.) in a gamma-counter.

In another assay the target is T2, CCKA (Cavia porcellus, UniProt Q63931).
T2 construct: The pancreatata were homogenised in 40 ml ice-cold HEPES buffer using a polytron; from tissue; host or cells: pancreas membranes of male Dunkin Hartley guinea-pigs
T2 sequence (Q63931 1-430): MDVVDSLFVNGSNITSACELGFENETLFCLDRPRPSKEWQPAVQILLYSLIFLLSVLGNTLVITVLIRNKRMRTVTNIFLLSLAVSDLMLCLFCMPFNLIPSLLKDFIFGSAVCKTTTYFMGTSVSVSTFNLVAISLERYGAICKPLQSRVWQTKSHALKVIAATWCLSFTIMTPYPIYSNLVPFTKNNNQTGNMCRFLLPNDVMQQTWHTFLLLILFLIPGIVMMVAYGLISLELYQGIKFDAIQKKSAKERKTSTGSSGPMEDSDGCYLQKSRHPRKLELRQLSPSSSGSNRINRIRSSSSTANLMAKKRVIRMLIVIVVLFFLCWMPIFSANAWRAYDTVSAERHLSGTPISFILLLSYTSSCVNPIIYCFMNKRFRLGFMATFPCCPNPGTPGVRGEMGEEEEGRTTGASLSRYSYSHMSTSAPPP
Kind of assay: CCKA radioligand binding assay in guinea-pig pancreas membranes ([125I]-CCK8(S)). To be noted: PD134,308 present, 150 minutes at 21±3°; for Ki: read-out: CCKA pKi (converted). How it is done:
The compounds of the examples were also tested in a CCKA as follows:
The pancreatata were removed from male guinea-pigs (200-300 g; Dunkin Hartley) and placed in ice-cold HEPES buffer (pH 7.2 @ 21 ±3). The pancreatata were homogenised in 40 ml ice-cold HEPES buffer using a polytron (Brinkmann, PT10, setting 10) 4×1 second. The homogenate was centrifuged at 39,800 g for 15 min at 4°. The supernatant was discarded and the pellet re-suspended using a Teflon-in-glass homogeniser in 20 volumes of fresh buffer and re-centrifuged as above.
The final pellet was re-suspended using a Teflon-in-glass homogeniser to a tissue concentration of 1 mg.ml^-1 (original wet weight), and filtered through 500 μm pore-size Nytex mesh.
The membranes (400 μl; containing 0.375 μM PD134,308) are incubated for 150 minutes at 21±3° in a final volume of 0.5 ml with HEPES buffer containing [^125 I]-CCK8 (S) (50 μl; […]) and competing compound. Total and non-specific binding of [^125 I]-CCK8 (S) are defined using 50 μl of buffer and 50 μl of 100 nM L-364,718 respectively. The assay is terminated by rapid filtration through pre-soaked Whatman GF/B filters using a Brandell Cell Harvester. The filters were washed (3×3 ml) with ice-cold 50 mM Tris HCl (pH 7.4 at 4°) and bound radioactivity is determined by counting (1 min) in a gamma counter.

Take “1/2-(1-adamantanemethylaminocarbonyl)-naphthoic acid Regioisomer 2 [Example 22]”: on CCKB receptor, the “CCKB pKi” value came to 5.9. Moreover, the “CCKA pKi” value at CCKA is 5.4.
As to “5-(1S-(3,5-diaminophenylaminocarbonyl)-2-phenylethylaminocarbonyl)-6-(1-adamantanemethyl-N-methylaminocarbonyl)-indole and regioisomer with substituents at positions 5 and 6 reversed [Example 43]”, the “CCKB pKi” value at CCKB receptor amounted to 5.8.
Consider “5-(1S-(3,5-diethoxycarbonylphenylaminocarbonyl)-2-phenylethylaminocarbonyl)-6-(1-adamantanemethylaminocarbonyl)-indole and regioisomer with substituents at positions 5 and 6 reversed [Example 66]”, for which the “CCKB pKi” value at CCKB receptor is given as 5.8. Further, the “CCKA pKi” value at CCKA worked out at 5.0.
Taken in the same sequence, the figures for “5-(1S-(trans3,4-dimethoxycarbonylpyrrolidinocarbonyl)-2-phenylethylaminocarbonyl)-6-(1-adamantanemethylaminocarbonyl)-indole and regioisomer with substituents at positions 5 and 6 reversed [Example 49]” were 5.6 and 5.6.
Take `O=C(O)c1cc(NC(=O)[C@H](Cc2ccccc2)NC(=O)c2cc3cc[nH]c3cc2C(=O)NCC2CCC(O)CC2)cc(C(=O)O)c1` (single isomer, unassigned) [Example 110, 5-(1S-(3,5-dicarboxyphenylaminocarbonyl)-2-phenylethylaminocarbonyl)-6-(4-hydroxycyclohexanemethylaminocarbonyl)-indole]: at CCKB receptor, the Ki was 398 nM.
Regarding `COC(=O)[C@@H]1CCCN1C(=O)c1cc2ccccc2cc1C(=O)NCC12CC3CC(CC(C3)C1)C2` [Example 6, 2-(2S-methoxycarbonylpyrrolidino-carbonyl)-3-(1-adamantanemethylaminocarbonyl)-naphthalene], the Ki on CCKB receptor was 1000 nM; on CCKA it was 2510 nM.
Take `COC(=O)c1cc(NC(=O)[C@H](Cc2ccccc2)NC(=O)c2cc3ccccc3cc2C(=O)NCC23CC4CC(CC(C4)C2)C3)cc(C(=O)OC)c1` [Example 17, 2-(1S-(3,5-dimethoxycarbonyl-phenylamino-carbonyl)-2-phenylethylaminocarbonyl)-3-(1-adamantanemethylaminocarbonyl)-naphthalene]: the Ki on CCKA was 15800 nM.
On the same count and under the same terms, then `COC(=O)c1cc(NC(=O)[C@H](Cc2ccccc2)NC(=O)c2cc3ccccc3cc2C(=O)NCC23CC4CC(CC(C4)C2)C3)cc(C(=O)O)c1` [Example 18, 2-(1S-(3-methoxycarbonyl-5-carboxyphenylaminocarbonyl)-2-phenylethylaminocarbonyl)-3-(1-adamantanemethylaminocarbonyl)-naphthalene], with 501 nM.
As for `O=C(NCC12CC3CC(CC(C3)C1)C2)c1cc(Cl)c(Cl)cc1C(=O)N1CCC[C@@H]1C(=O)O` [Example 19, (2R-carboxypyrrolidino-carbonyl)-2-(1-adamantanemethylaminocarbonylmethyl)-4,5-dichlorobenzene], the Ki is 2000 nM on CCKB receptor and 5010 nM on CCKA.
Taken in the same sequence, the figures for `O=C(O)c1cccc2cccc(C(=O)NCC34CC5CC(CC(C5)C3)C4)c12` [Example 20, 1-(1-adamantanemethylaminocarbonyl)-8-naphthoic acid] were 10000 nM and 10000 nM.
Taken in the same sequence, the figures for `Cn1ccc2cc(C(=O)N[C@@H](Cc3ccccc3)C(=O)Nc3cc(C(=O)O)cc(C(=O)O)c3)c(C(=O)NCC34CC5CC(CC(C5)C3)C4)cc21` [Example 36, 5-(1S-(3,5-dicarboxyphenylaminocarbonyl)-2-phenylethylaminocarbonyl)-6-(1-adamantanemethylaminocarbonyl)-N-methyl-indole] were 0.398 nM and 3160 nM.
Consider `O=C(O)c1cc(NC(=O)[C@H](Cc2ccccc2)NC(=O)c2cc3ccn(S(=O)(=O)c4ccccc4)c3cc2C(=O)NCC23CC4CC(CC(C4)C2)C3)cc(C(=O)O)c1` [Example 45, 5-(1S-(3,5-dicarboxyphenylaminocarbonyl)-2-phenylethylaminocarbonyl)-6-(1-adamantanemethylamino-carbonyl)-N-phenylsulphonyl-indole], for which the “CCKB pKi” value on CCKB receptor is on record as 7.1. The “CCKA pKi” value on CCKA worked out at 6.1.
Consider `Nc1ccc(C[C@H](NC(=O)c2cc3[nH]cnc3cc2C(=O)NCC23CC4CC(CC(C4)C2)C3)C(=O)Nc2cc(C(=O)O)cc(C(=O)O)c2)cc1` [Example 64, 5-(1S-(3,5-dicarboxyphenylaminocarbonyl)-2-(4-aminophenyl)-ethylaminocarbonyl)-6-(1-adamantanemethylaminocarbonyl)-benzimidazole], for which the Ki on CCKB receptor is 63.1 nM.
Still for that read-out and setting: then `O=C(O[C@H]1CO[C@@H](c2ccccc2)OC1)c1cc(NC(=O)[C@H](Cc2ccccc2)NC(=O)c2cc3cc[nH]c3cc2C(=O)NCC23CC4CC(CC(C4)C2)C3)cc(C(=O)O[C@H]2CO[C@@H](c3ccccc3)OC2)c1` [Example 106, 5-(1S-(3,5-di-(cis-4-phenyl-3,5-dioxacyclohexaneoxycarbonyl)-phenylaminocarbonyl)-2-phenylethylaminocarbonyl)-6-(1-adamantanemethyl-aminocarbonyl)-indole], with 2000 nM.
As for `CC(C)(C)C(=O)OCOC(=O)c1cc(NC(=O)[C@H](Cc2ccccc2)NC(=O)c2cc3ccoc3cc2C(=O)NCC23CC4CC(CC(C4)C2)C3)cc(C(=O)OCOC(=O)C(C)(C)C)c1` [Example 121, 5-(1S-(3,5-di-t-butylcarbonyloxymethyloxycarbonylphenylaminocarbonyl)-2-phenylethylaminocarbonyl)-6-(1-adamantanemethylaminocarbonyl)-benzofuran], the “CCKA pKi” value on CCKA amounted to 5.1.
On to `CC(=O)NS(=O)(=O)c1cccc(NC(=O)[C@H](Cc2ccccc2)NC(=O)c2cc3cc[nH]c3cc2C(=O)NCC23CC4CC(CC(C4)C2)C3)c1` [Example 138, 5-(1S-(3-acetylaminosulphonylphenylaminocarbonyl)-2-phenylethylaminocarbonyl)-6-(1-adamantanemethylaminocarbonyl)-indole], for which, at CCKB receptor, the “CCKB pKi” value is on record as 8.1.

These data come from patent US5795907A, “Gastin and CCK receptor ligands” (James Black Foundation Limited, priority 1994, dated 1998).
